Earlier results on three compounds are cited in US9066860B2, “Oil-in-water emulsified composition” (SHISEIDO COMPANY, LTD., priority 2009, dated 2015).

The structures appear in SMILES notation.

The conditions of the series: background art statement.
For the compound `CCCCC(CC)COC(=O)C=Cc1ccc(OC)cc1` (stereo not drawn) [2-ethylhexyl p-methoxycinnamate], the “Maximum (peak) absorption wavelength” value was around 310 nm.

Consider `CCCCC(CC)COC(=O)c1ccc(N(C)C)cc1` (stereo not drawn) [2-ethylhexyl-p-dimethylaminobenzoate], for which the “Maximum (peak) absorption wavelength” value was around 290 nm.

With `COc1ccc(C(=O)CC(=O)c2ccc(C(C)(C)C)cc2)cc1` [4-tert-butyl-4′-methoxydibenzoylmethane], the “Maximum (peak) absorption wavelength” value was “around 360 nm”.
